Assay in all cases: GC-MS of terpene products after phosphatase treatment
Common to all, as to assay type: biochemical

The target in one assay is T1, AlTPS2 (Wurfbainia longiligularis, UniProt A0A7L7T499).
T1 construct: gene TPS2; full ORF 587 residues; predicted 34-residue N-terminal plastid transit peptide removed; MBP fusion (pMAL-c5X), E. coli Rosetta (DE3), about 108 kDa, tag kept
T1 sequence (A0A7L7T499 35-587): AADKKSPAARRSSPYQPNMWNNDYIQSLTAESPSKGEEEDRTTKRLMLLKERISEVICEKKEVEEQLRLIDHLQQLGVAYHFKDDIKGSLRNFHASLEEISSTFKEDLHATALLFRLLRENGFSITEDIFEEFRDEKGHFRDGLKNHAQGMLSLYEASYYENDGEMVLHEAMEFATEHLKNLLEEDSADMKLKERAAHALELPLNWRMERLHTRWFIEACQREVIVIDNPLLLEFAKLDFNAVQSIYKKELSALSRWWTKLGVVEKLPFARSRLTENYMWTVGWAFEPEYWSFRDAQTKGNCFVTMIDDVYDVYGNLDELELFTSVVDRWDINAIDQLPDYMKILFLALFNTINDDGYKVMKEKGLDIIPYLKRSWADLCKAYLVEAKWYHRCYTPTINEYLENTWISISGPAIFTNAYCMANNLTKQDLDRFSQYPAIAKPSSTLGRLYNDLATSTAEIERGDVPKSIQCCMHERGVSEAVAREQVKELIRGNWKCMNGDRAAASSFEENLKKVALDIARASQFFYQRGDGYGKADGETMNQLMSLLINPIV
As to conditions: 30 C, 1 h; then alkaline phosphatase 37 C.

In another assay the target is T2, AvTPS2 (Wurfbainia villosa, UniProt A0A7L7TAQ2).
T2 construct: gene TPS2; full ORF 587 residues; predicted 34-residue N-terminal plastid transit peptide removed
T2 sequence (A0A7L7TAQ2 35-587): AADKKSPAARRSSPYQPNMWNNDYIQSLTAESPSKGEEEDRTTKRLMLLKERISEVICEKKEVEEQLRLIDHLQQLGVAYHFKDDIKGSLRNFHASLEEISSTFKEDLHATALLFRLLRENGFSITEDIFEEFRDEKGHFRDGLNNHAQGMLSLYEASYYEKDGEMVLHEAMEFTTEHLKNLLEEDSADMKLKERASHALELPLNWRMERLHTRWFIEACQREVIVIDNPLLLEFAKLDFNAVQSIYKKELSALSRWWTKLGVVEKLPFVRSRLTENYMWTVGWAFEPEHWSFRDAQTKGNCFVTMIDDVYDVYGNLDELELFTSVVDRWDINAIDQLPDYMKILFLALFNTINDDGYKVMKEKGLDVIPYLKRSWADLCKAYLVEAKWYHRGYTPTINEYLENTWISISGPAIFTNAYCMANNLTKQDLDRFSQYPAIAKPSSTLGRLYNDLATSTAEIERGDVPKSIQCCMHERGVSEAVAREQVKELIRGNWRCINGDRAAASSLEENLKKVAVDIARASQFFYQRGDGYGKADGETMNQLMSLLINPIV
The settings on record: 30 C, 1 h; then alkaline phosphatase 37 C.

Assay [1] addresses T3, AlTPS3 (Wurfbainia longiligularis, UniProt A0A7L7T473).
T3 construct: gene TPS3; ORF 1791 bp, printed as 597 residues; predicted 47-residue N-terminal plastid transit peptide removed
T3 sequence (A0A7L7T473 48-597): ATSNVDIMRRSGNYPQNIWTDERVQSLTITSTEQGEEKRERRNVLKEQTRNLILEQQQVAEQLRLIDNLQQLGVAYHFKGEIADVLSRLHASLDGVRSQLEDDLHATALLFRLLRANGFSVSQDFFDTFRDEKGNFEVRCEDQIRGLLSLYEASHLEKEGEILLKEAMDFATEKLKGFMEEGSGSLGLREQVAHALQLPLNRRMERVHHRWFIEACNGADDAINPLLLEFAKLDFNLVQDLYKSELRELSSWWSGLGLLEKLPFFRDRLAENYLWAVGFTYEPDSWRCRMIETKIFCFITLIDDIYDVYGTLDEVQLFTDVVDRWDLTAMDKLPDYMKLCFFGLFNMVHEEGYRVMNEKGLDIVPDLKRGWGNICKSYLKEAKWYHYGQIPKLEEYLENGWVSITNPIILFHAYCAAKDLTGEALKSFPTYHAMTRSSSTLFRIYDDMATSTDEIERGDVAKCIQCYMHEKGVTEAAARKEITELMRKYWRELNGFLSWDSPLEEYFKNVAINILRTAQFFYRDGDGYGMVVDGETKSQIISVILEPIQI
As to conditions: 30 C, 1 h; then alkaline phosphatase 37 C.

Assay [2] concerns the target T4, AlTPS3 (Wurfbainia longiligularis, UniProt A0A7L7T473, A496G).
T4 construct: gene TPS3; ORF 1791 bp, printed as 597 residues; predicted 47-residue N-terminal plastid transit peptide removed
As to conditions: overnight incubation with GPP; conserved DTE motif.

Another assay deals with T5, AvBPPS (Wurfbainia villosa, UniProt A0A2Z4K4Q8).
T5 construct: gene TPS3; full length 596 residues; recombinant, cloned in the authors' earlier work (Wang et al. 2018); truncation and tag not restated here
The settings on record: 30 C, 1 h; then alkaline phosphatase 37 C.

1 molecule from paper PMC8406774, “A Comparison of Two Monoterpenoid Synthases Reveals Molecular Mechanisms Associated With the Difference of Bioactive Monoterpenoids Between Amomum villosum and Amomum longiligulare” (Frontiers in Plant Science, 2021) can be followed below.

T4 sequence (A0A7L7T473 entry or part of it A496G): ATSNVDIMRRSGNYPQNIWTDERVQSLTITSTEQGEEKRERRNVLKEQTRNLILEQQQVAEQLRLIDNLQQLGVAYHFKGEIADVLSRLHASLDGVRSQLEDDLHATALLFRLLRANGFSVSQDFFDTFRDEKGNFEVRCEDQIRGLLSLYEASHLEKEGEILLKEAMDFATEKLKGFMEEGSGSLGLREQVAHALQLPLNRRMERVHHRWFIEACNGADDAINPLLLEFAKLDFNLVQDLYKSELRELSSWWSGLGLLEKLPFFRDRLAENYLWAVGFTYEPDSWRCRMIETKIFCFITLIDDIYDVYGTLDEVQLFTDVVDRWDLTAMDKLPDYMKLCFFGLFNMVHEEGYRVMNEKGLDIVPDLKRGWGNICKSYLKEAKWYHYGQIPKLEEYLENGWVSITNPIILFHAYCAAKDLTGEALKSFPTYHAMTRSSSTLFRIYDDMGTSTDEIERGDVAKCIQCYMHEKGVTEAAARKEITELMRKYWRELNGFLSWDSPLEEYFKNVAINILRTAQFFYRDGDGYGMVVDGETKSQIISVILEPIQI
T5 sequence (A0A2Z4K4Q8 entry or part of it): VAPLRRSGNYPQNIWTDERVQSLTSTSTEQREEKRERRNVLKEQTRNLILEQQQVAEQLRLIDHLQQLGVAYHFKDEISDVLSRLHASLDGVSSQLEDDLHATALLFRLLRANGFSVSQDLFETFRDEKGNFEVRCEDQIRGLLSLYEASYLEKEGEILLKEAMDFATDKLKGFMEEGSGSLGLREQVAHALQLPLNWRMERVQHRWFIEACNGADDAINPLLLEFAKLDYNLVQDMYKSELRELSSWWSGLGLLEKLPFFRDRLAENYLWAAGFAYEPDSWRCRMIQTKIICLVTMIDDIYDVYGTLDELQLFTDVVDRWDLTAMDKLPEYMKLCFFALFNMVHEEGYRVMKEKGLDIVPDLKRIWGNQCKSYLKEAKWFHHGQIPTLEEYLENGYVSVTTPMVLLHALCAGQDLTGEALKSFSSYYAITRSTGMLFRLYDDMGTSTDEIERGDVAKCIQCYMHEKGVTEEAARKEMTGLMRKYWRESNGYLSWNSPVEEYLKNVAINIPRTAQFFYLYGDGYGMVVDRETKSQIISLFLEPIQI

For `CC(C)=CCC/C(C)=C/COP(=O)(O)OP(=O)(O)O` [GPP], the “GC-MS of terpene products after phosphatase treatment” value at AlTPS2 is “When the substrate was GPP, AlTPS2, and AvTPS2 produced the monoterpene product linalool”; on AvTPS2 it was “When the substrate was GPP, AlTPS2, and AvTPS2 produced the monoterpene product linalool”; at AlTPS3 [1], “AlTPS3 recombinant protein catalyzed GPP to produce camphene as the major product”; on AlTPS3 [2], “the site-directed mutant of AlTPS3-A496G and AvBPPS-G495A were constructed, and the overnight reaction with GPP”; on AvBPPS it was “reaction products generated by recombinant protein AlTPS3 and AvBPPS from GPP”.
